Data from article PMC7690448, “Generation of a hTERT-Immortalized Human Sertoli Cell Model to Study Transporter Dynamics at the Blood-Testis Barrier” (Pharmaceutics, 2020).

Target: T1, ENT1 (Homo sapiens, UniProt Q99808)
T1 construct: gene SLC29A1
T1 sequence (Q99808 2-456): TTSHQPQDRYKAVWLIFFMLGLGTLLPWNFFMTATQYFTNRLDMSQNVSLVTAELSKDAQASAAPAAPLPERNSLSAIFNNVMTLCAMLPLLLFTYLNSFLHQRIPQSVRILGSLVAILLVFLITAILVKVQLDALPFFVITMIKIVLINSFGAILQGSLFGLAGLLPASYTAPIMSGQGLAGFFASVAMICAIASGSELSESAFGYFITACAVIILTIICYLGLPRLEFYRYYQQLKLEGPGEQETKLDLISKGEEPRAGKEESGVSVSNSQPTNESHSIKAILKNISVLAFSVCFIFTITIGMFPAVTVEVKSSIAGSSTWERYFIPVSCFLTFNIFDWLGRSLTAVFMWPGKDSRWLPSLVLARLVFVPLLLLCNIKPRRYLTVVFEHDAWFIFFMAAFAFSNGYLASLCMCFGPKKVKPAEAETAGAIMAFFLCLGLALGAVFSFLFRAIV
Test: NBMPR-sensitive [3H] uridine uptake in primary human Sertoli cells and hT-SerCs (endogenous ENT1)
Type: cell-based

O=c1ccn([C@@H]2O[C@H](CO)[C@@H](O)[C@H]2O)c(=O)[nH]1 [uridine]
NBMPR-sensitive [3H] uridine uptake in primary human Sertoli cells and hT-SerCs: These data suggest that uridine uptake into both cells is primarily mediated by ENT1 with minimal contribution by ENT2.
